Assay results as given in patent publication US11773086B2, “Fungal modulators” (TRUSTEES OF BOSTON UNIVERSITY, priority 2020, dated 2023).

System: CDR1 (B9J08_000164) and CDR4-1 (B9J08_000479)
Assay: RT-qPCR of efflux gene expression
Assay type: cell-based, Candida auris
Conditions: azoffluxin alone, 3 hours
Source text: FIGS. 3A-3B, and 4A-4B illustrate azoffluxin increases fluconazole (FLC) bioavailability by inhibiting Cdr1-mediated efflux in C. auris, as described above. FIG. 3A depicts the relative abundance of specific sterols determined in C. auris after an 18-hour treatment with the respective compounds (⋅ indicates combo treatment concentrations) using LC-MS. Values are plotted relative to the internal standard of cholesterol and error bars indicate standard deviation between technical triplicates. Significance was determined by an unpaired student t-test of each condition to untreated, (*) indicates a p-value<0.05 and (**) indicates a p-value<0.01. FIG. 3B depicts the intracellular concentrations of FLC and azoffluxin measured after treatment for 1 hour (conditions as in FIG. 3A) Error bars indicate standard deviation between technical triplicates. Significance was determined by an unpaired student t-test, (**) indicates a p-value<0.01. FIG. 4A depicts the quantified relative expression of a panel of putative efflux pumps in C. auris Ci6684. Expression of CDR1 (B9J08_000164), MDR1 (B9J08_003981), CDR4-1 (B9J08_000479), CDR4-2 (B9J08_002451), SNQ2-1 (B9J08_001125), and SNQ2-2 (B9J08_004452) was measured by RT-qPCR. […] FIG. 4B depicts expression of CDR1 (B9J08_000164) and CDR4-1 (B9J08_000479) measured by quantitative real-time PCR (RT-qPCR). […]

For `C=C(C)C[C@@H](O)COc1cc2c(cc1C1(c3cc4c(cc3OC[C@H](O)CC(=C)C)OCO4)C(=O)Nc3cc(F)ccc31)OCO2` [CMLD012336], the “CDR1 and CDR4-1 transcript levels” value was “concentration-dependent increase”.
